Results taken from BigSolDB 2.1.

O=C1Cc2ccccc2N1
Conditions | solubility (mole fraction)
in 1,4-dioxane, 287.15 K | 0.276
in 1,4-dioxane, 292.15 K | 0.309
in 1,4-dioxane, 296.15 K | 0.336
in 1,4-dioxane, 300.15 K | 0.363
in 1,4-dioxane, 304.15 K | 0.394
in 1,4-dioxane, 308.65 K | 0.421
in 1,4-dioxane, 311.65 K | 0.448
in 1,4-dioxane, 315.35 K | 0.475
in 1,4-dioxane, 319.05 K | 0.502
in 1,4-dioxane, 323.15 K | 0.529
in 1,4-dioxane, 328.15 K | 0.567
in THF, 293.85 K | 0.0116
in THF, 298.65 K | 0.0133
in THF, 302.95 K | 0.0155
in THF, 307.25 K | 0.0181
in THF, 312.55 K | 0.021
in THF, 317.05 K | 0.0243
in THF, 321.35 K | 0.0276
in THF, 327.35 K | 0.0327
in THF, 333.95 K | 0.0397
in acetone, 288.15 K | 0.0498
in acetone, 294.05 K | 0.0602
in acetone, 299.35 K | 0.0707
in acetone, 304.55 K | 0.0812
in acetone, 309.65 K | 0.0919
in acetone, 314.45 K | 0.102
in acetone, 319.55 K | 0.112
in acetone, 325.55 K | 0.122
in acetone, 328.25 K | 0.127
in acetonitrile, 287.15 K | 0.0508
in acetonitrile, 292.15 K | 0.0628
in acetonitrile, 296.15 K | 0.0748
in acetonitrile, 300.15 K | 0.0869
in acetonitrile, 304.15 K | 0.101
in acetonitrile, 308.65 K | 0.123
in acetonitrile, 311.65 K | 0.146
in acetonitrile, 315.35 K | 0.171
in acetonitrile, 319.05 K | 0.196
in acetonitrile, 323.15 K | 0.227
in acetonitrile, 328.15 K | 0.285
in dichloromethane, 288.15 K | 0.0353
in dichloromethane, 292.15 K | 0.0383
in dichloromethane, 296.15 K | 0.0419
in dichloromethane, 300.15 K | 0.0452
in dichloromethane, 304.15 K | 0.0485
in dichloromethane, 308.65 K | 0.0519
in dichloromethane, 311.65 K | 0.0552
in ethanol, 291.95 K | 0.00842
in ethanol, 297.95 K | 0.0134
in ethanol, 302.95 K | 0.0186
in ethanol, 307.65 K | 0.0253
in ethanol, 312.55 K | 0.0324
in ethanol, 318.05 K | 0.0458
in ethanol, 322.65 K | 0.0568
in ethanol, 327.95 K | 0.0742
in ethanol, 332.65 K | 0.0952
in ethyl acetate, 287.15 K | 0.141
in ethyl acetate, 292.15 K | 0.156
in ethyl acetate, 296.15 K | 0.169
in ethyl acetate, 300.15 K | 0.184
in ethyl acetate, 304.15 K | 0.198
in ethyl acetate, 308.65 K | 0.215
in ethyl acetate, 311.65 K | 0.233
in ethyl acetate, 315.35 K | 0.247
in ethyl acetate, 319.05 K | 0.27
in ethyl acetate, 323.15 K | 0.287
in ethyl acetate, 328.15 K | 0.32
in isopropanol, 291.95 K | 0.00673
in isopropanol, 297.95 K | 0.00919
in isopropanol, 303.05 K | 0.0122
in isopropanol, 308.35 K | 0.0155
in isopropanol, 313.15 K | 0.0192
in isopropanol, 317.45 K | 0.0232
in isopropanol, 322.15 K | 0.0287
in isopropanol, 328.35 K | 0.0355
in isopropanol, 333.35 K | 0.0443
in methanol, 291.95 K | 0.00441
in methanol, 297.95 K | 0.00563
in methanol, 302.95 K | 0.00688
in methanol, 307.65 K | 0.00821
in methanol, 312.55 K | 0.00977
in methanol, 317.45 K | 0.0119
in methanol, 322.15 K | 0.0137
in methanol, 327.35 K | 0.0163
in methanol, 332.35 K | 0.019
in n-butanol, 293.85 K | 0.00297
in n-butanol, 298.65 K | 0.00379
in n-butanol, 302.95 K | 0.00468
in n-butanol, 307.25 K | 0.00546
in n-butanol, 312.55 K | 0.00674
in n-butanol, 317.05 K | 0.00793
in n-butanol, 321.35 K | 0.00952
in n-butanol, 327.35 K | 0.0115
in n-butanol, 333.95 K | 0.0143
in n-propanol, 293.15 K | 0.0387
in n-propanol, 299.35 K | 0.0476
in n-propanol, 303.05 K | 0.0523
in n-propanol, 308.35 K | 0.0599
in n-propanol, 313.15 K | 0.0677
in n-propanol, 317.05 K | 0.0744
in n-propanol, 320.75 K | 0.0814
in n-propanol, 328.35 K | 0.0976
in n-propanol, 333.35 K | 0.109
in toluene, 291.95 K | 0.00318
in toluene, 297.95 K | 0.00526
in toluene, 302.95 K | 0.00796
in toluene, 307.65 K | 0.0121
in toluene, 312.55 K | 0.018
in toluene, 317.45 K | 0.0258
in toluene, 322.15 K | 0.0389
in toluene, 327.35 K | 0.0615
in toluene, 332.05 K | 0.0848
